Numbers after ± are expanded uncertainties.
Assay: xn = mol fraction of the nth substance listed
Conditions: 101 kPa, Liquid, Vibrating tube method, x2 = 0.3333

SMILES: NC(N)=O [urea] + C[N+](C)(C)CCO.[Cl-]
- mass density (293.15 K): 1200.1 ± 0.4 kg/m3
- mass density (303.15 K): 1194.5 ± 0.4 kg/m3
- mass density (313.15 K): 1188.7 ± 0.4 kg/m3
- mass density (323.15 K): 1183.1 ± 0.4 kg/m3
- mass density (333.15 K): 1177.3 ± 0.4 kg/m3
- mass density (343.15 K): 1170.8 ± 0.4 kg/m3
- mass density (353.15 K): 1163.5 ± 0.4 kg/m3
- mass density (363.15 K): 1155.4 ± 0.4 kg/m3
